# Source: publication PMC7245553 (Cell chemical biology, 2020)
# Values joined by “and” are separate entries in the source; they are usually repeats but may differ in a detail not shown here. Identical values can stand only once. Like-named read-outs stand apart in the source and are kept apart here.
# Assays:
# [1] = Mouse pharmacokinetic profiling; format: in vivo, CD-1 mice
# [2] = in vitro; format: cell-based; conditions: African green monkey
# [3] = tested on: M. tuberculosis H37Rv; assay: M. tuberculosis MIC assay; conditions: for MIC H37Rv: 90% inhibition of bacterial growth, Alamar blue
# [4] = Mouse liver microsomal stability; format: in vitro ADME; conditions: pH 7.4
# [5] = physchem; format: physicochemical; conditions: pH 7.4, aqueous buffer, kinetic from dmso stock
# [6] = tested on: M. tuberculosis; assay: Mouse model of chronic M. tuberculosis infection; format: in vivo, BALB/c mice; conditions: for reduction in CFUs, controls: 10 or 20 mg/kg qd po
# [7] = tested on: M. tuberculosis mc^26206 within J774.1 cells; assay: microbe, parasite or virus in culture; format: cell-based; conditions: Mycobacterium tuberculosis, J774.1, read-out: IC50, intracellular growth of M. tuberculosis mc^26206 within J774.1 cells
# [8] = pH 7.4; cited from earlier work
# [9] = tested on: Vero cells; conditions: cited from earlier work
# [10] = mouse, microsomes; cited from earlier work
# [11] = tested on: M. tuberculosis H37Rv; conditions: acute model, 100 mg/kg qd po, alone; ref Kumar et al., 2018; cited from earlier work
# [12] = tested on: M. tuberculosis H37Rv; conditions: cited from earlier work
# [13] = tested on: M. tuberculosis H37Rv; assay: Mouse model of acute M. tuberculosis infection; format: in vivo, BALB/c mice; conditions: for increase of CFU in the lungs versus start of treatment: 100 mg/kg po qd; for bacterial load in the spleen: po qd
# [14] = tested on: M. tuberculosis; assay: M. tuberculosis killing kinetics; format: cell-based, Mycobacterium tuberculosis; conditions: for reduction in CFUs, killing kinetics: 103 MIC of compound, over 7 days, followed by re-growth; for cidality in vitro: H37Rv strain; for killing in combination with INH: each at 10× MIC
# [15] = tested on: CYP1A2, CYP2C9, CYP2C19, CYP2D6, CYP3A4 (one value for the profile of isoforms; except 2C19 for compound 10); assay: in vitro; format: in vitro ADME; conditions: human, pH 7.4
# [16] = tested on: M. tuberculosis; assay: M. tuberculosis MBC assay; format: cell-based; conditions: Mycobacterium tuberculosis
# [17] = format: in vitro ADME; conditions: mouse, 5 µM
# [18] = format: in vitro ADME; conditions: human, 5 µM
# [19] = target: cytochrome P450 2C19 (Homo sapiens, UniProt P33261); assay: Human cytochrome P450 2C19 inhibition; format: in vitro ADME
# [20] = tested on: Staphylococcus aureus; assay: MIC versus Staphylococcus aureus; format: cell-based
# [21] = tested on: Enterobacter cloacae; assay: MIC versus Enterobacter cloacae; format: cell-based
# [22] = Dog liver microsomal stability; format: in vitro ADME; conditions: pH 7.4
# [23] = target: KasA (Mycobacterium tuberculosis, UniProt P9WQD9); assay: Microscale thermophoresis binding assay
# [24] = tested on: mycolic acid biosynthesis within M. tuberculosis H37Rv; assay: Mycolic acid biosynthesis analysis; format: cell-based, Mycobacterium tuberculosis
# [25] = tested on: Enterococcus faecium; assay: MIC versus Enterococcus faecium; format: cell-based
# [26] = target: hERG (Homo sapiens, UniProt Q12809); assay: hERG inhibition; format: biochemical
# [27] = tested on: Klebsiella pneumoniae; assay: MIC versus Klebsiella pneumoniae; format: cell-based
# [28] = tested on: Pseudomonas aeruginosa; assay: MIC versus Pseudomonas aeruginosa; format: cell-based
# [29] = female, CD-1, mouse, in vivo, po
# Chain of KasA (P9WQD9 whole entry): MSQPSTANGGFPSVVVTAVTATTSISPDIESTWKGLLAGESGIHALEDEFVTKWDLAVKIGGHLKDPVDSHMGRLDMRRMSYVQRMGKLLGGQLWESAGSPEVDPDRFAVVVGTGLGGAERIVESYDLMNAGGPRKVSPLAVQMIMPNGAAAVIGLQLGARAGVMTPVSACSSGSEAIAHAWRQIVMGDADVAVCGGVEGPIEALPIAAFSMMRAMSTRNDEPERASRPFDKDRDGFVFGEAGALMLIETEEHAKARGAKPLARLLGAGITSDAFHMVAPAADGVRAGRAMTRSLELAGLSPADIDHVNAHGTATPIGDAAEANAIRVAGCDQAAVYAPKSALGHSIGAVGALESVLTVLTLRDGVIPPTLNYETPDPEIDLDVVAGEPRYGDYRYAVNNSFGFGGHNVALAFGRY
# Chain of cytochrome P450 2C19 (P33261 whole entry): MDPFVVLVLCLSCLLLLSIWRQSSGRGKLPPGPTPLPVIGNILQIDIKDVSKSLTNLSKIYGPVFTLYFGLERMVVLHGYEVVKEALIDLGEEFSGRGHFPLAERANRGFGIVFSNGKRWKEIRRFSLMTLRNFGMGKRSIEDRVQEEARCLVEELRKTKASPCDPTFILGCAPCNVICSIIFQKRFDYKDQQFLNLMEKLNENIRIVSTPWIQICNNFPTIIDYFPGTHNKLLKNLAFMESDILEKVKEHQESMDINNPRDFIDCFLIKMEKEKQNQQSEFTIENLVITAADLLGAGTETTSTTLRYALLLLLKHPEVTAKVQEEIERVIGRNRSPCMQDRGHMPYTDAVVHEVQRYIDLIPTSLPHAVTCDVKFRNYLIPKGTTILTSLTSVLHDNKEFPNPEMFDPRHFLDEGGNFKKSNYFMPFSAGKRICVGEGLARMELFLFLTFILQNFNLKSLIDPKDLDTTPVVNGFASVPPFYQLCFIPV
# Chain of hERG (Q12809 whole entry): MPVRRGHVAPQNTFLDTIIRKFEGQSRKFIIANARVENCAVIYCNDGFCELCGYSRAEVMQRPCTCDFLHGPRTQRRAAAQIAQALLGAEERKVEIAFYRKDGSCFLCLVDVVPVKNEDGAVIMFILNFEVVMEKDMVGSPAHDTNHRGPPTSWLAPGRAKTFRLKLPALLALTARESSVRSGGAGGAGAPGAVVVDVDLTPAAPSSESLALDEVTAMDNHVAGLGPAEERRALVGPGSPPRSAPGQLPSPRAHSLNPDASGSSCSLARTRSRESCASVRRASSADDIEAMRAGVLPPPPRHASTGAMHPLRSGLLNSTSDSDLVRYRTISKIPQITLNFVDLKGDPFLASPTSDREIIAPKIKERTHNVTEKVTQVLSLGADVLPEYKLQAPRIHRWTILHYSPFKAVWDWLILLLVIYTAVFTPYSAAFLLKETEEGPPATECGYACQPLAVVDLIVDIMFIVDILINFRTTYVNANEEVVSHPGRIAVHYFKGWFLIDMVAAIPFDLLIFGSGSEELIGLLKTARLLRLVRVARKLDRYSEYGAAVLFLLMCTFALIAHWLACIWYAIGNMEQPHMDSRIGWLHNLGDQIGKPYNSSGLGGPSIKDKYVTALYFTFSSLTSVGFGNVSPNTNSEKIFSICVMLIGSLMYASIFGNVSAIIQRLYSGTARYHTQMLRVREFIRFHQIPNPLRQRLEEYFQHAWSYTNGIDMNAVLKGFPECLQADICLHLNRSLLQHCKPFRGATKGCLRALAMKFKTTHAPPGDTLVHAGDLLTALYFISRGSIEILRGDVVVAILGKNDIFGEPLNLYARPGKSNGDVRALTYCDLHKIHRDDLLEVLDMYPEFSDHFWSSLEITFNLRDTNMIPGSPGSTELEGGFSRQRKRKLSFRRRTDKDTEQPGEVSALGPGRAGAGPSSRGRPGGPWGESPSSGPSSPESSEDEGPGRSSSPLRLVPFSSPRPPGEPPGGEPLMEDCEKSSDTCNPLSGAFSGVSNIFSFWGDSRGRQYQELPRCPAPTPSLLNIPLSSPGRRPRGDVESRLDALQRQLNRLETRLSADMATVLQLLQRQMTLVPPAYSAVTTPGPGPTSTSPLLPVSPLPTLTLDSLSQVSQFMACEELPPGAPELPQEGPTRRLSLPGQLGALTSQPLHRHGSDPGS
structure (smiles),measurement,setting,value
"CCCCCS(=O)(=O)Nc1ccc2[nH]nc(C)c2c1 [Compound 13, N-(3-methyl-1H-indazol-5-yl)pentane-1-sulfonamide]",Kp at 5 h,"[1]; female, CD-1, mouse, in vivo",1.3
same,t > MIC,"[1]; female, CD-1, mouse, in vivo",5 h
same,AUC(0-t),[1]; [29],13900 ng·h/mL
same,CC50,[2],89 µM
same,MIC H37Rv,[3],0.12 µM
same,half-life,[4]; microsomes,3.26 min
same,solubility kinetic at 4 h,[5],476 µM
"CO[C@H]1/C=C/O[C@@]2(C)Oc3c(C)c(O)c4c(O)c(c(/C=N/N5CCN(C)CC5)c(O)c4c3C2=O)NC(=O)/C(C)=C\C=C\[C@H](C)[C@H](O)[C@@H](C)[C@@H](O)[C@@H](C)[C@H](OC(C)=O)[C@@H]1C [RIF, rifampicin, reference compound]","reduction in CFUs, controls",[6]; 4 weeks,~ 2 log10
same,IC50,[7],0.3 µM
"Cc1n[nH]c2ccc(NS(=O)(=O)CCCC(F)(F)F)cc12 [Compound 15, 4,4,4-trifluoro-N-(3-methyl-1H-indazol-5-yl)butane-1-sulfonamide]",Kp at 5 h,"[1]; female, CD-1, mouse, in vivo",0.95
same,t > MIC,"[1]; female, CD-1, mouse, in vivo",5 h
same,AUC(0-t),[1]; [29],28400 ng·h/mL
same,CC50,[2],> 160 µM
same,MIC H37Rv,[3],0.25 µM
CCCCS(=O)(=O)Nc1ccc2cnn(C)c2c1 [DG167],Kinetic Aqueous Solubility,[8],324 µM
same,CC50,[9],23 µM
same,AUC0–5h/MIC,"[1]; mouse, in vivo, po",20
same,MLM t1/2,[10],10.1 min
same,bacterial load of mouse lungs versus start of treatment,[11],did not reduce the bacterial load of mouse lungs
same,MIC H37Rv,"[12]; footnote a, ref Kumar et al. (2018)",0.39 µM
same,MIC against the wild-type H37Rv strain,"[12]; ref Kumar et al., 2018",390 µM
same,increase of CFU in the lungs versus start of treatment,[13],about 1 log10 CFU
same,"reduction in CFUs, killing kinetics",[14],> 2 log10
"CCCCS(=O)(=O)Nc1ccc2[nH]nc(Cl)c2c1 [Compound 14, N-(3-chloro-1H-indazol-5-yl)butane-1-sulfonamide]",Kp at 5 h,"[1]; female, CD-1, mouse, in vivo",0.6
same,t > MIC,"[1]; female, CD-1, mouse, in vivo",5 h
same,AUC(0-t),[1]; [29],51700 ng·h/mL
same,CC50,[2],22 µM
same,MIC H37Rv,[3],0.39 µM
same,half-life,[4]; microsomes,32.1 min
same,solubility kinetic at 4 h,[5],443 µM
"CCCCS(=O)(=O)Nc1ccc2[nH]c(C(N)=O)c(C)c2c1 [Compound 8, 5-(butylsulfonamido)-3-methyl-1H-indole-2-carboxamide]",CC50,[2],> 160 µM
same,MIC H37Rv,[3],3.1 µM
same,half-life,[4]; microsomes,6.16 min
same,solubility kinetic at 4 h,[5],45.5 µM
"O=S(=O)(CCCC(F)(F)F)Nc1ccc2[nH]nc(Cl)c2c1 [Compound 16, N-(3-chloro-1H-indazol-5-yl)-4,4,4-trifluorobutane-1-sulfonamide]",Kp at 5 h,"[1]; female, CD-1, mouse, in vivo",1.2
same,t > MIC,"[1]; female, CD-1, mouse, in vivo",5 h
same,AUC(0-t),[1]; [29],22000 ng·h/mL
same,CC50,[2],> 150 µM
same,MIC H37Rv,[3],0.20 µM
"CCCCS(=O)(=O)Nc1ccc2[nH]c(C#N)c(C)c2c1 [Compound 9, N-(2-cyano-3-methyl-1H-indol-5-yl)butane-1-sulfonamide]",CC50,[2],170 µM
same,IC50 at 20 min,[15],> 1 µM
same,MIC H37Rv,[3],0.78 µM
same,MIC,[3]; H37Rv,780 µM
same,half-life,[4]; mouse liver microsomes,6.51 min
same,IC50,[7],0.19 µM
same,increase of CFU in the lungs versus start of treatment,[13],about 1 log10 CFU
same,bacterial load in the spleen,[13],did not reduce the bacterial load in the spleen
same,"reduction in CFUs, killing kinetics",[14],> 2 log10
same,cidality in vitro,[14],in vitro bactericidal
same,MBC,[16],1.4 to 2.7 µM
same,plasma stability at 5 h,[17],≥ 80%
same,plasma stability at 5 h,[18],≥ 80%
"CCCCS(=O)(=O)Nc1ccc2[nH]c(CN)c(C)c2c1 [Compound 11, N-(2-(aminomethyl)-3-methyl-1H-indol-5-yl)butane-1-sulfonamide]",CC50,[2],170 µM
same,MIC H37Rv,[3],100 µM
"NNC(=O)c1ccncc1 [INH, isoniazid, reference compound]","reduction in CFUs, controls",[6]; 4 weeks,~ 2 log10
same,IC50,[7],0.5 µM
same,"reduction in CFU, killing kinetics","[14]; 103 MIC, over 4 days, with rapid re-growth",> 3 log10
"CCCCCS(=O)(=O)Nc1ccc2[nH]c(C#N)c(C)c2c1 [Compound 10, N-(2-cyano-3-methyl-1H-indol-5-yl)pentane-1-sulfonamide]",CC50,[2],160 µM
same,IC50 at 20 min,[15],> 1 µM
same,MIC H37Rv,[3],0.2 µM and 0.20 µM
same,half-life,[4]; mouse liver microsomes,4.08 min
same,IC50,[7],0.078 µM
same,bacterial growth in the lungs,[13]; 100 mg/kg,permissive of bacterial growth in the lungs
same,activity in the lungs,[13]; 200-mg/kg dosing regimen,bacteriostatic activity in the lungs
same,bacterial load in the spleen,[13],did not reduce the bacterial load in the spleen
same,cidality in vitro,[14],in vitro bactericidal
same,killing in combination with INH,[14],culture sterilization
same,MBC,[16],0.65 to 1.3 µM
same,plasma stability at 5 h,[17],≥ 80%
same,IC50,[19],0.542 µM
same,plasma stability at 5 h,[18],≥ 80%
"CCCCS(=O)(=O)Nc1ccc2[nH]cc(C)c2c1 [Compound 4, N-(3-methyl-1H-indol-5-yl)butane-1-sulfonamide]",CC50,[2],> 190 µM
same,MIC H37Rv,[3],1.6 µM
"CCCCCS(=O)(=O)Nc1ccc2[nH]nc(Cl)c2c1 [Compound 17, N-(3-chloro-1H-indazol-5-yl)pentane-1-sulfonamide]",Kp at 5 h,"[1]; female, CD-1, mouse, in vivo",1.7
same,t > MIC,"[1]; female, CD-1, mouse, in vivo",5 h
same,AUC(0-t),[1]; [29],34800 ng·h/mL
same,CC50,[2],170 µM
same,MIC H37Rv,[3],0.39 µM
"Cc1n[nH]c2ccc(NS(=O)(=O)CCCCF)cc12 [JSF-3285, 4-fluoro-N-(3-methyl-1H-indazol-5-yl)butane-1-sulfonamide]",improvement of efficacy of INH or RIF regimen on addition,[6]; 200 mg/kg added to 10 mg/kg INH or RIF,~ 1 log10
same,additional reduction of bacterial burden compared to INH- and RIF-only treatment,[6]; 200 mg/kg alone,~ 1 log10 CFUs
same,reduction of bacterial burden in the mouse lungs versus start of treatment,"[6]; 200 mg/kg qd po alone or with 10 mg/kg INH or RIF, 4 weeks",more than 2 log10 CFUs
same,reduction in CFUs in infected lungs,"[6]; 200–5 mg/kg qd and 20 mg/kg qd or bid, 4 weeks of treatment",1.5–2.0 log10
same,MIC,[20],> 50 µg/mL
same,MIC,[21],> 50 µg/mL
same,increase in mouse plasma exposure (AUC0–5h) over DG167,"[1]; female, CD-1, mouse, in vivo",30 fold
same,t > MIC,"[1]; female, CD-1, mouse, in vivo",5 h
same,AUC(0-t),[1]; [29],59300 ng·h/mL
same,Kp at 5 h,"[1]; female, CD-1, mouse, lung and plasma, oral",0.75
same,CC50,[2],170 µM
same,half-life,[22]; microsomes,48.2 min
same,intrinsic clearance (Clint) in dog liver microsomes,[22],124 µL/min/mg
same,MIC H37Rv,[3],0.20 µM
same,half-life,[4]; mouse liver microsomes,28.4 min
same,Kd,[23],0.0707 ± 0.0235 µM
same,solubility kinetic at 4 h,[5],175 µM
same,mycolic acid biosynthesis,[24],inhibited mycolic acid biosynthesis
same,IC50,[7],0.046 µM
same,MIC,[25],> 50 µg/mL
same,reduction in lung bacterial burden (CFUs) versus start of treatment,"[13]; 100 or 200 mg/kg qd po, 4 weeks of treatment",~ 2 log10
same,cidality in vitro,[14],cidal to the H37Rv strain
same,killing in combination with INH,[14],culture sterilization
same,IC50,[26],> 50 µM
same,MIC,[27],> 50 µg/mL
same,MIC,[28],> 50 µg/mL
"CCCCS(=O)(=O)Nc1ccc2[nH]c(C(=O)OCC)c(C)c2c1 [Compound 5, ethyl 5-(butylsulfonamido)-3-methyl-1H-indole-2-carboxylate]",CC50,[2],> 150 µM
same,MIC H37Rv,[3],0.20 µM
same,half-life,[4]; microsomes,< 0.5 min
same,solubility kinetic at 4 h,[5],0.895 µM
"O=S(=O)(CCCCF)Nc1ccc2[nH]nc(Cl)c2c1 [Compound 18, N-(3-chloro-1H-indazol-5-yl)-4-fluorobutane-1-sulfonamide]",CC50,[2],160 µM
same,MIC H37Rv,[3],0.20 µM
